US10221137B2, “Herbicidal phenylpyridines” (BASF SE, priority 2015, dated 2019)

How the values were obtained:
Experiment in all cases: greenhouse experiment, post-emergence treatment
Format in all cases: in vivo
Conditions in all cases: application rate of 16 g/ha, post-emergence method; scale from 0 to 100
Setaria viridis = tested on: Setaria viridis
Description: (§1) The seeds of the test plants were sown separately for each species. For the post-emergence treatment, the test plants were first grown to a height of 3 to 15 cm, depending on the plant habit, and only then treated with the active ingredients which had been suspended or emulsified in water. For this purpose, the test plants were either sown directly and grown in the same containers, or they were first grown separately as seedlings and transplanted into the test containers a few days prior to treatment. Depending on the species, the plants were kept at 10-25° C. or 20-35° C., respectively. The test period extended over 2 to 4 weeks. During this time, the plants were tended, and their response to the individual treatments was evaluated. Evaluation was carried out using a scale from 0 to 100. 100 means no emergence of the plants, or complete destruction of at least the aerial moieties, and 0 means no damage, or normal course of growth. A good herbicidal activity is given at values of at least 70 and a very good herbicidal activity is given at values of at least 85. The plants used in the greenhouse experiments were of the following species: [table]

Chenopodium album = tested on: Chenopodium album
Description: as §1

Amaranthus retroflexus = tested on: Amaranthus retroflexus
Description: as §1

SMILES | herbicidal activity against Setaria viridis (Setaria viridis) | herbicidal activity against Chenopodium album (Chenopodium album) | herbicidal activity against Amaranthus retroflexus (Amaranthus retroflexus)
COC(=O)C(OC)Oc1cc(-c2ncc(Cl)cc2Cl)ccc1Cl (racemic) [Example 6] | very good herbicidal activity (a very good herbicidal activity is given at values of at least 85) | good herbicidal activity (A good herbicidal activity is given at values of at least 70) | very good herbicidal activity (a very good herbicidal activity is given at values of at least 85)
COc1ccc(CNC(=O)C(OC)Oc2cc(-c3ncc(C(F)(F)F)cc3Cl)c(F)cc2Cl)cc1 (stereo not drawn) [Example 44] | good herbicidal activity (A good herbicidal activity is given at values of at least 70) | very good herbicidal activity (a very good herbicidal activity is given at values of at least 85) | very good herbicidal activity (a very good herbicidal activity is given at values of at least 85)
